Measurements reported in BindingDB's records for patent US20230331683 (University of Virginia Patent Foundation, 2023).
pIC50: −log10 of the molar value.

Biological target: T1, Sphingosine-1-phosphate transporter SPNS2 (Mus musculus, UniProt Q91VM4)
T1 sequence (Q91VM4 whole entry): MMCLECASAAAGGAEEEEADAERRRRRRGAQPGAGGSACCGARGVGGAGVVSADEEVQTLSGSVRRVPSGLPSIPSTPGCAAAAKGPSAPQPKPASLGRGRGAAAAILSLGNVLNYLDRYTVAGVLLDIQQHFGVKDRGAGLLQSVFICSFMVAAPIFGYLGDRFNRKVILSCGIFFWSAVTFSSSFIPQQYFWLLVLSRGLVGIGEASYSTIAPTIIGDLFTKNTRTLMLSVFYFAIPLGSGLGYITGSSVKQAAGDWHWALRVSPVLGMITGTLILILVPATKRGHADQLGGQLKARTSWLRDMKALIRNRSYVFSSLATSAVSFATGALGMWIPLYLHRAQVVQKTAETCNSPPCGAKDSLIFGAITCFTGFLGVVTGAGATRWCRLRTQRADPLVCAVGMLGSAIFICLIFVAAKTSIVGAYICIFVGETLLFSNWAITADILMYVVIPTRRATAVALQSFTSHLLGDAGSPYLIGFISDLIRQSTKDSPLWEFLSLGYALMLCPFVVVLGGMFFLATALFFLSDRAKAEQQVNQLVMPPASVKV
Test: S1P Transporter Assay
Description: Transporter assays are vectorial and therefore require measurement of the transported analyte in different compartments. The S1P transporter SPNS2 only exports S1P, which obviates measuring uptake of S1P into transporter-expressing cells. Thus, transporter activity was determined by quantifying S1P release from whole cells expressing SPNS2. SPNS2 inhibitor potency was assessed using whole cell assays. HeLa cells expressing mouse SPNS2 were used to determine inhibitor potency (IC50). Cells were plated onto 12 well plates and assayed when the cell monolayers became confluent. Cell growth media (RPMI-1640 containing 10% fetal bovine serum) was replaced with 2 mL of serum-free media (RPMI-1640) containing fatty acid free bovine serum albumin (BSA) (0.2 % w/v) and supplemented with 4-deoxypyridoxine (DOP) (1 mM), NaF (2 mM), Na3VO4 (0.2 mM) to inhibit S1P degradation. Test articles (1 × 10-9 - 1 × 10^-4 M) were assayed in duplicate or triplicate. After 18 hours, media was collected, an internal recovery standard (0.005 mL of 5 × 10^-7 M deuterated (d7) S 1P in methanol) was added, the BSA was precipitated with trichloroacetic acid and the bound S1P extracted with methanol. S1P and S1P-d7 were measured by liquid chromatography mass spectrometry.

SMILES | pIC50
CCCCCCCCc1ccc2cc(NC(=O)CCCN)ccc2c1 [US20230331683, Compound 2k] | < 5.70
CCCCCCCCCCc1ccc(NC(=O)[C@@H]2CCN(C(=N)N)C2)cc1 [US20230331683, Compound 4b] | > 5.70
CCCCCCCCCCc1ccc2nc(CCCN)oc2c1 [US20230331683, Compound 8e] | < 5.70
CCCCCCCCCCc1ccc2oc(N[C@H]3CCNC3)nc2c1 [US20230331683, Compound 13j] | > 5.70
CCCCCCCCCCc1ccc2oc(N[C@@H]3CCNC3)nc2c1 [US20230331683, Compound 13k] | > 5.70
CCCCCCCCCCc1ccc2nc(N[C@H]3CCNC3)oc2c1 [US20230331683, Compound 13s] | > 5.70
CCCCCCCCCCc1ccc2nc(N[C@@H]3CCNC3)oc2c1 [US20230331683, Compound 13t] | > 5.70
CCCCCCCCCCc1ccc(C(=O)N[C@H]2CCNC2)cc1 [US20230331683, Compound 26a] | > 5.70

Next, values leading:

pIC50 | SMILES
> 5.70 | CCCCCCCCCCc1ccc(C(=O)N[C@@H]2CCNC2)cc1 [US20230331683, Compound 26b]
< 5.70 | CCCCCCCCCCc1ccc(C(=O)N(C)[C@@H]2CCNC2)cc1 [US20230331683, Compound 32]
> 5.70 | CCCCCCCCCCc1ccc(C(=S)N[C@@H]2CCNC2)cc1 [US20230331683, Compound 33]
> 5.70 | CCCCCCCCCCc1ccc2oc(NC[C@@H]3CCNC3)nc2c1 [US20230331683, Compound 37]
> 5.70 | CCCCCCCCCCc1ccc2oc(NC[C@H]3CCNC3)nc2c1 [US20230331683, Compound 38]
